Data from paper PMC7967212, “Vitamin D Compounds PRI-2191 and PRI-2205 Enhance Anastrozole Activity in Human Breast Cancer Models” (International Journal of Molecular Sciences, 2021).

Target: T1, aromatase (CYP19) (Homo sapiens, UniProt P11511)
T1 construct: gene CYP19A1
T1 sequence (P11511 1-503): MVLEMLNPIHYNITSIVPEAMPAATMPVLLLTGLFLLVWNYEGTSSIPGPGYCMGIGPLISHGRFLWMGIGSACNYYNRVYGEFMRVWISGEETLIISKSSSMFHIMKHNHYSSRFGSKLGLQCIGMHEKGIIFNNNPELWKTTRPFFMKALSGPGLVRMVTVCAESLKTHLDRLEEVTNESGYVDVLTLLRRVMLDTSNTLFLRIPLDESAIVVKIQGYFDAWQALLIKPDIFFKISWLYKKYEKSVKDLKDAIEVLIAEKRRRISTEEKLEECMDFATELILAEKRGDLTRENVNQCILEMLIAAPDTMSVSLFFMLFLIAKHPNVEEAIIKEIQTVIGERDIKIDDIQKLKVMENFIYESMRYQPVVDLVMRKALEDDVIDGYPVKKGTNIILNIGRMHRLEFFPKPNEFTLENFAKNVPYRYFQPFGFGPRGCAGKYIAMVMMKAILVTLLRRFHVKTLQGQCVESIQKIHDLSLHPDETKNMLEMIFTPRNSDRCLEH
Test: CYP19/MFC High Throughput Inhibitor Screening Kit (Corning No. […]), fluorogenic enzyme inhibition
Type: biochemical

## C=C1/C(=C\C=C2/CCC[C@]3(C)[C@@H]([C@H](C)CC[C@@H](O)C(C)C)CC[C@@H]23)C[C@@H](O)C[C@@H]1O [PRI-2191]
  IC50: 152 ± 30.5 nM
